Results published in patent US9255295B2, “Method for evaluating the sensitizing potential of a test compound” (IMMUNOSEARCH, priority 2010, dated 2016).
Like-named read-outs stand apart in the source and are kept apart here.

Experiments:
[1] = tested on: ARE gene family (AKR1B10, AKR1C1, AKR1C2, CYP1B1, FTH1P, FTL, G6PD, GCLM, NQO2, SLC7A11, TXNRD1, UGT1A1, UGT1A9, YWHAZ, CD36, CYP1A1, GCLC, HMOX1, NQO1, PSME2 …); settings: human
EPISKIN model = assay: Sensitizing power: sensitizing potential retested at successive dilutions in the EPISKIN model
Source text: “Sensitizing power” means the ability of a given compound to induce a sensitization reaction according to the concentration of said compound. Sensitizing power is dependent on the quantity of substance necessary to induce sensitization. Thus, the lower the sensitizing quantity necessary to induce a sensitizing response, the stronger the sensitizer is, and vice versa, the higher the sensitizing quantity necessary to induce a sensitizing response, the weaker the sensitizer is.
Thus, steps 1) and 2) will be done for each of the dilutions.

Oc1ccc(O)cc1 [Hydroquinone]
AHR expression compared to control ([1]; 15 min, 0.1 %): 0.8 | ARE >1.3 (NUMBER OF GENES) ([1]; 15 min, 0.1 %): 5 | GCLM expression compared to control ([1]; 15 min, 0.1 %): 0.7 | NQO2 expression compared to control ([1]; 15 min, 0.1 %): 0.9 | SLC7A11 expression compared to control ([1]; 15 min, 0.1 %): 1.3 | TOTAL ARE (NUMBER OF GENES) ([1]; 15 min, 0.1 %): 5 | UGT1A9 expression compared to control ([1]; 15 min, 0.1 %): 0.8 | AHR expression compared to control ([1]; 15 min, 1 %): 0.6 | ARE >1.3 (NUMBER OF GENES) ([1]; 15 min, 1 %): 9 | GCLM expression compared to control ([1]; 15 min, 1 %): 1.8 | NQO2 expression compared to control ([1]; 15 min, 1 %): 1.4 | SLC7A11 expression compared to control ([1]; 15 min, 1 %): 1.5 | TOTAL ARE (NUMBER OF GENES) ([1]; 15 min, 1 %): 9 | UGT1A9 expression compared to control ([1]; 15 min, 1 %): 1.5 | AHR expression compared to control ([1]; 15 min, 10 %): 0.6 | ARE >1.3 (NUMBER OF GENES) ([1]; 15 min, 10 %): 13 | GCLM expression compared to control ([1]; 15 min, 10 %): 2.0 | NQO2 expression compared to control ([1]; 15 min, 10 %): 1.5 | SLC7A11 expression compared to control ([1]; 15 min, 10 %): 1.6 | TOTAL ARE (NUMBER OF GENES) ([1]; 15 min, 10 %): 13 | UGT1A9 expression compared to control ([1]; 15 min, 10 %): 1.3 | ARE >1.3 (NUMBER OF GENES) ([1]; 15 min, 50 %): 15 | TOTAL ARE (NUMBER OF GENES) ([1]; 15 min, 50 %): 15 | AKR1B10 expression compared to control ([1]; 6 h, 0.1 %): 0.9 | AKR1C1 expression compared to control ([1]; 6 h, 0.1 %): 1.2 | AKR1C2 expression compared to control ([1]; 6 h, 0.1 %): 0.7 | CD36 expression compared to control ([1]; 6 h, 0.1 %): 0.7 | CYP1A1 expression compared to control ([1]; 6 h, 0.1 %): 8.0 | CYP1B1 expression compared to control ([1]; 6 h, 0.1 %): 1.8 | FTH1P expression compared to control ([1]; 6 h, 0.1 %): 1.2 | FTL expression compared to control ([1]; 6 h, 0.1 %): 1.5 | GCLC expression compared to control ([1]; 6 h, 0.1 %): 1.3 | HMOX1 expression compared to control ([1]; 6 h, 0.1 %): 1.1 | NQO1 expression compared to control ([1]; 6 h, 0.1 %): 1.2 | S100A8 expression compared to control ([1]; 6 h, 0.1 %): 1.1 | TXNRD1 expression compared to control ([1]; 6 h, 0.1 %): 2.3 | UGT1A1 expression compared to control ([1]; 6 h, 0.1 %): 1.7 | AKR1B10 expression compared to control ([1]; 6 h, 1 %): 1.0 | AKR1C1 expression compared to control ([1]; 6 h, 1 %): 2.0 | AKR1C2 expression compared to control ([1]; 6 h, 1 %): 1.3 | CD36 expression compared to control ([1]; 6 h, 1 %): 0.7 | CYP1A1 expression compared to control ([1]; 6 h, 1 %): 15.4 | CYP1B1 expression compared to control ([1]; 6 h, 1 %): 7.1 | FTH1P expression compared to control ([1]; 6 h, 1 %): 1.3 | FTL expression compared to control ([1]; 6 h, 1 %): 1.5 | GCLC expression compared to control ([1]; 6 h, 1 %): 1.3 | HMOX1 expression compared to control ([1]; 6 h, 1 %): 1.0 | NQO1 expression compared to control ([1]; 6 h, 1 %): 1.3 | S100A8 expression compared to control ([1]; 6 h, 1 %): 1.4 | TXNRD1 expression compared to control ([1]; 6 h, 1 %): 2.1 | UGT1A1 expression compared to control ([1]; 6 h, 1 %): 1.4 | AKR1B10 expression compared to control ([1]; 6 h, 10 %): 1.0 | AKR1C1 expression compared to control ([1]; 6 h, 10 %): 2.6 | AKR1C2 expression compared to control ([1]; 6 h, 10 %): 1.8 | CD36 expression compared to control ([1]; 6 h, 10 %): 0.7 | CYP1A1 expression compared to control ([1]; 6 h, 10 %): 33.2 | CYP1B1 expression compared to control ([1]; 6 h, 10 %): 17.1 | FTH1P expression compared to control ([1]; 6 h, 10 %): 1.4 | FTL expression compared to control ([1]; 6 h, 10 %): 1.9 | GCLC expression compared to control ([1]; 6 h, 10 %): 1.5 | HMOX1 expression compared to control ([1]; 6 h, 10 %): 1.2 | NQO1 expression compared to control ([1]; 6 h, 10 %): 1.5 | S100A8 expression compared to control ([1]; 6 h, 10 %): 1.4 | TXNRD1 expression compared to control ([1]; 6 h, 10 %): 2.6 | UGT1A1 expression compared to control ([1]; 6 h, 10 %): 1.5 | AHR expression compared to control ([1]; 6 h, 50 %): 0.9 | AKR1B10 expression compared to control ([1]; 6 h, 50 %): 1.1 | AKR1C1 expression compared to control ([1]; 6 h, 50 %): 3.5 | AKR1C2 expression compared to control ([1]; 6 h, 50 %): 3.7 | CD36 expression compared to control ([1]; 6 h, 50 %): 0.8 | CYP1A1 expression compared to control ([1]; 6 h, 50 %): 57.8 | CYP1B1 expression compared to control ([1]; 6 h, 50 %): 49.5 | FTH1P expression compared to control ([1]; 6 h, 50 %): 2.1 | FTL expression compared to control ([1]; 6 h, 50 %): 3.5 | GCLC expression compared to control ([1]; 6 h, 50 %): 2.4 | GCLM expression compared to control ([1]; 6 h, 50 %): 3.8 | HMOX1 expression compared to control ([1]; 6 h, 50 %): 3.5 | NQO1 expression compared to control ([1]; 6 h, 50 %): 2.8 | NQO2 expression compared to control ([1]; 6 h, 50 %): 2.0 | S100A8 expression compared to control ([1]; 6 h, 50 %): 1.4 | SLC7A11 expression compared to control ([1]; 6 h, 50 %): 5.4 | TXNRD1 expression compared to control ([1]; 6 h, 50 %): 7.9 | UGT1A1 expression compared to control ([1]; 6 h, 50 %): 1.9 | UGT1A9 expression compared to control ([1]; 6 h, 50 %): 1.7 | sensitizing potential (Sensitizing / Non-sensitizing) (EPISKIN model; 1%): Sensitizing | sensitizing potential (Sensitizing / Non-sensitizing) (EPISKIN model; 10%): Sensitizing | sensitizing potential (Sensitizing / Non-sensitizing) (EPISKIN model; 50%): Sensitizing | sensitizing power (class) (EPISKIN model; from successive dilutions 50%, 10%, 1%, 0.1%): STRONG
